Measurements taken from US9649378B2, “Cancer methods” (priority 2010, dated 2017).
Values joined by “and” are separate entries in the source; they are usually repeats but may differ in a detail not shown here. Equal entries are not always repeated. Where two headings read alike, the source gives them in different places.

Tests used:
[1] = tested on: HER2 3+ recurrent disease (ovarian and breast cancer); assay: response to lapatinib in patients by RECIST criteria versus OPCML IHC; type: in vivo, human; parameters: key: SD = stable disease; PR = partial response; PD = progressive disease; conditions: individual cases 1-8, HER2 3+
Description: We next tested whether OPCML could be used to predict response to lapatinib in ovarian and breast cancer. Histology was obtained by new biopsy of recurrent disease and TTP (time in months to progression from start of therapy until progression) assessed. Docetaxel and anthracyclines were administered for a maximum of 6 cycles and capecitabine was administered until disease progression or unacceptable toxicity. HER2 immunohistochemistry (IHC) was performed using the Dako Herceptest kit: 3+ in all cases.

phospho-ERK [2] = assay: lapatinib-induced pERK attenuation after OPCML siRNA knockdown in OSE-C2 cells
Description: (§4) (B) The effect of OPCML knockdown on the efficiency of lapatinib-induced pERK attenuation was analysed; densitometry of pERK signal (mean values of 3 independent experiments).
Endogenous OPCML was knocked down in OSE-C2 cells by transient transfection of a specific pool of 3 siRNAs (Stealth knockdown-Invitrogen) using lipofectamine RNAiMAX reagent.
We then investigated whether siRNA knockdown of physiological OPCML expression in normal OSE-C2 cells could affect sensitivity to lapatinib.

phospho-ERK [3] = assay: EGF induced phospho-ERK activation in OPCML transfected (BKS2.1) and control (SKOBS-V1.2) cells
Description: as §4
OPCML transfected and control cells were pre-incubated with lapatinib, trastuzumab, cituximab, erlotinib and gefitinib.

EGFR = biological target: T1, EGFR (Homo sapiens, UniProt P00533); assay: GST-OPCML pull-down assay; type: binding; conditions: SK-OV-3 cell lysate
T1 construct: pull-down experiments with either SK-OV-3 cell lysates (expressing HER2 and EGFR); endogenous in cells; host or cells: SK-OV-3
Description: (§1) FIG. 2: OPCML interacts with the ECD of HER2 and FGFR1 but not EGFR. (A) (i): Co-IP was performed using protein extracts from SKOBS-V1.2, SKOBS-3.5 and BKS2.1 (SKOBS-3.5 and BKS2.1 express 3 and 20-fold more OPCML protein than normal physiological levels seen in OSE-C2). The goat polyclonal anti-OPCML (R & D Systems) was used in initial IP and products were detected on Western blots employing respective Abs for EGFR and HER2. The reciprocal IP with a monoclonal to ECD of HER2 (Calbiochem) is shown with successful immunoblotting for OPCML in the BKS2.1 stable line (expressing 20-fold more OPCML); (ii) Co-IP using the OPCML Ab in SKOBS-V1.2 and BKS2.1 lines were immunoblotted with anti-FGFR1αECD Ab. (B) A structural representation of GST-OPCML 1+2 and GST-OPCML 1+2+3 constructs with subsequent Western blot analysis of the fusion proteins. […] FGFR1 was also shown to bind GST-OPCML 1+2+3 and GST-OPCML 1+2 from the same pull-down with lysate from SK-OV-3 cells transiently transfected with FGFR1 cDNA.
(§2) FIG. 17: OPCML directly interacts with EphA2, FGFR1 and HER2, but not EGFR. (A) Immuno-precipitation (IP) for OPCML showing positive immunoblots for EphA2, FGFR1 and HER2. […] (B) A schematic representation of GST-OPCML domain 1-3 construct. (C). […] The presence of OPCML fusion proteins in these assays was verified by immunoblotting (IB, bottom panel).
(§3) Pull-down assays were performed using recombinant GST-OPCML fusion proteins bound to magnetic glutathione beads (Promega). Cell lysates prepared as for immunoprecipitation, proteins produced using TNT in vitro Rabbit reticulocyte lysate expression system (Promega) or expressed in bacteria were used analysed for interactions.

FGFR1 = assay: GST-OPCML pull-down assay; type: binding; conditions: lysate of FGFR1 transfected cells or FGFR1 ECD protein
Description: as §1, §2, §3

HER2 = assay: GST-OPCML pull-down assay; type: binding; conditions: SK-OV-3 lysate or in vitro translated HER2ECD
Description: as §1, §2, §3

OPCML [4] = assay: induction of OPCML expression by growth factors in serum starved SK-OV-3 cells (qRT-PCR, Western); type: cell-based; conditions: 50 ng/ml EGF
Description: Quantitative reverse-transcription PCR (qRT-PCR) analysis of gene expression was carried out on an Applied Biosystems 7900HT thermal cycler using SYBR green I technology. Premixed qPCR reagent, Platinum® Quantitative PCR SuperMix-UDG with ROX (Invitrogen, UK), was used for amplification. The expression of specific genes was normalized to the expression of the endogenous control gene HPRT1.

OPCML [5] = assay: induction of OPCML expression by growth factors in a panel of ovarian cancer cell lines; type: cell-based; conditions: data not shown
Text: OPCML is a non-transmembrane, external lipid leaflet GPI-anchored protein, and is frequently lost from cells by somatic inactivation of the gene.

[6] = OPCML transfected versus control cells, EGF induced phospho-ERK

FGFR1, sequence (P11362 22-376 limits assumed): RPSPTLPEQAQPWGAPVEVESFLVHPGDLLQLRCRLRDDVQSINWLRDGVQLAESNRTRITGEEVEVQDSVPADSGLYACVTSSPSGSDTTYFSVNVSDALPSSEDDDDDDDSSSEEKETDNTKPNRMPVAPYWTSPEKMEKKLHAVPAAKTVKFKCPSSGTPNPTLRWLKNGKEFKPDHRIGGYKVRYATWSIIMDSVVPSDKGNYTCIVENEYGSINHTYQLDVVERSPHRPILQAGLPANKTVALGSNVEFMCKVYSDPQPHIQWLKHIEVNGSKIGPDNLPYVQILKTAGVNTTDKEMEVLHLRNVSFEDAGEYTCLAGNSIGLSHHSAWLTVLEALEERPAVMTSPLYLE

CS(=O)(=O)CCNCc1ccc(-c2ccc3ncnc(Nc4ccc(OCc5cccc(F)c5)c(Cl)c4)c3c2)o1.Cc1ccc(S(=O)(=O)O)cc1.Cc1ccc(S(=O)(=O)O)cc1.O [lapatinib, N-(3 chloro-4-{[(3-fluorophenyl)methyl]oxy}phenyl)-6-[5-({[2(methylsulfonyl)ethyl]amino}methyl)-2-furanyl]-4-quinazolinamine bis (4 methylbenzenesulfonate) monohydrate]
Response to lapatinib [1]: SD (2×) and PD (2×) and PR (4×) | extent of inhibition of pERK signal (phospho-ERK [2]; knockdown by siRNA to OPCML, P=0.0009): 47% | reduction of EGF-induced pERK signal (phospho-ERK [2]; non-silencing (non-si) duplex, densitometry, mean of 3 experiments): 70% | increase in sensitivity: reduction of effective concentration required to abolish the phospho-ERK signal (phospho-ERK [3]; BKS2.1 compared with SKOBS-V1.2, EGF 50 ng/ml, monohydrate): > 10 fold and 10 fold | OPCML mediated sensitization (phospho-ERK [3]; [6]): strong OPCML mediated sensitization

C#Cc1cccc(Nc2ncnc3cc(OCCOC)c(OCCOC)cc23)c1 [erlotinib]
OPCML mediated sensitization (phospho-ERK [3]): no sensitization

GST-OPCML D1+2+3: full length OPCML extracellular domain (Ig domains 1-3) fused to GST
binding of EGFR (EGFR): no binding of EGFR | interaction with FGFR1 (FGFR1): interacted with FGFR1 | interaction with FGFR1 (FGFR1; listed as GST-OPCML 1+2+3): shown to bind | interaction with FGFR1 (FGFR1; listed as GST-OPCML 1-3): specific binding | interaction with FGFR1 (FGFR1; listed as GST-OPCML D1-3): interacting specifically | interaction with HER2 (HER2): interacted | interaction with HER2 (HER2; listed as GST-OPCML 1+2+3): binding of HER2 | interaction with HER2 (HER2; listed as GST-OPCML 1-3): specific binding | interaction with HER2 (HER2; listed as GST-OPCML D1-3): interacting specifically

GST-OPCML D1+2: truncated OPCML ECD lacking Ig domain 3 fused to GST
interaction with FGFR1 (FGFR1): interacted with FGFR1 | interaction with FGFR1 (FGFR1; listed as GST-OPCML 1+2): shown to bind

EGF: human recombinant epidermal growth factor (Promega)
time of maximal OPCML mRNA expression (OPCML [4]): 30 min | ovarian cancer cell lines with rapid OPCML RNA and protein expression, of lines treated (OPCML [5]): 4/4

COc1cc2ncnc(Nc3ccc(F)c(Cl)c3)c2cc1OCCCN1CCOCC1 [gefitinib]
OPCML mediated sensitization (phospho-ERK [3]; [6]): no sensitization

GST-OPCML D2+3: GST/OPCML domain fusion protein with domains 2 and 3
interaction with FGFR1 (FGFR1): interacted with FGFR1
